Patent US10669284B2, “Fused thiazolopyrimidine derivatives as MNKS inhibitors” (LIFEARC, priority 2015, dated 2020)

What was measured:
[1] = target: ALK (Homo sapiens, UniProt Q9UM73); test: Kinase selectivity screen ALK; settings: read-out: % inhibition of ALK
[2] = target: INSR (Homo sapiens, UniProt P06213); test: Kinase selectivity screen INSR; settings: read-out: % inhibition of INSR
[3] = target: PIM2 (Homo sapiens, UniProt Q9P1W9); test: Kinase selectivity screen PIM2; settings: read-out: % inhibition of PIM2
[4] = target: T1, DYRK2 (Homo sapiens, UniProt Q92630); test: Kinase selectivity screen DYRK2; settings: read-out: % inhibition of DYRK2
T1 sequence (Q92630 1-601): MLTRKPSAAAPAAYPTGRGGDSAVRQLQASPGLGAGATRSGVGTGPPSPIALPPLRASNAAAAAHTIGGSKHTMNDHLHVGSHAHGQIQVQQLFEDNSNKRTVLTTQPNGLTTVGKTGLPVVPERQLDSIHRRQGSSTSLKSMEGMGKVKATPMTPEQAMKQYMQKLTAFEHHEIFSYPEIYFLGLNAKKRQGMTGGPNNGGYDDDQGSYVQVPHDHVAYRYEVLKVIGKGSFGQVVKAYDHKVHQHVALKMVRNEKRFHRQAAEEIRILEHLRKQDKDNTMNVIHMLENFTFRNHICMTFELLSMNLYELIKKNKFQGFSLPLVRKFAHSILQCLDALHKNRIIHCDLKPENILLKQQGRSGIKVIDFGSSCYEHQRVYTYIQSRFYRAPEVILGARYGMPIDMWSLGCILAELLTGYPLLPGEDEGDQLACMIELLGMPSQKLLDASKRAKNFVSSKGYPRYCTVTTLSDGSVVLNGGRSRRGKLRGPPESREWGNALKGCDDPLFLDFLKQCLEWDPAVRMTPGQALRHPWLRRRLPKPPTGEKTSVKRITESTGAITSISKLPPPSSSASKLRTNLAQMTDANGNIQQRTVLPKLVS

[5] = target: CaMK1 (Homo sapiens, UniProt Q14012); test: Kinase selectivity screen CaMK1; settings: read-out: % inhibition of CaMK1
[6] = target: FGFR4 (Homo sapiens, UniProt P22455); test: Kinase selectivity screen FGFR4; settings: read-out: % inhibition of FGFR4
[7] = target: T2, STK11 (Homo sapiens, UniProt Q15831); test: Kinase selectivity screen STK11; settings: read-out: % inhibition of STK11
T2 sequence (Q15831 1-433): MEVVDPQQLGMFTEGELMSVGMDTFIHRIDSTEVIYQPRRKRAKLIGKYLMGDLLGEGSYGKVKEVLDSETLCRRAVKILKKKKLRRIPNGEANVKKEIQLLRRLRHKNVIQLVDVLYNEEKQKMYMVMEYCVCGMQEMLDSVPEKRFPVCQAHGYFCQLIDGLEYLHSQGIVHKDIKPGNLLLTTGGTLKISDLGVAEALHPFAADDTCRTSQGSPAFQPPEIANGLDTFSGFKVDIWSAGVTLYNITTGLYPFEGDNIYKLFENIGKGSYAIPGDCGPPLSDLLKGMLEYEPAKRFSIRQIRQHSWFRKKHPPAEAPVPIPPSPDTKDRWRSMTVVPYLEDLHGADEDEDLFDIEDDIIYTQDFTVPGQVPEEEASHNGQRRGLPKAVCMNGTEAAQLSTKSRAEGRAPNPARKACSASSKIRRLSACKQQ
T2 sequence (Q7RTN6 1-431 partner): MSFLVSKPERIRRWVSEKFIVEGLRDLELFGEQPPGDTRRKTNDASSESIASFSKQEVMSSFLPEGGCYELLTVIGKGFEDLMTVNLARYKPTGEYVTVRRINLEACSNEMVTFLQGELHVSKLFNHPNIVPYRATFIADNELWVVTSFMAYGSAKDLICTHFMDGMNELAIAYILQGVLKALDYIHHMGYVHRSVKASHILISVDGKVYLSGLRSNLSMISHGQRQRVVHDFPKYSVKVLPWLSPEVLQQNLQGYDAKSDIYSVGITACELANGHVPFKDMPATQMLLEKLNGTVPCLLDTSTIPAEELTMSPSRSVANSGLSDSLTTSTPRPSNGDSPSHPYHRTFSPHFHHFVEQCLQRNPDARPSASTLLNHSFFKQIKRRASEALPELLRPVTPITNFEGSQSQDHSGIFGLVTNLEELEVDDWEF
T2 sequence (Q9Y376 1-341 partner): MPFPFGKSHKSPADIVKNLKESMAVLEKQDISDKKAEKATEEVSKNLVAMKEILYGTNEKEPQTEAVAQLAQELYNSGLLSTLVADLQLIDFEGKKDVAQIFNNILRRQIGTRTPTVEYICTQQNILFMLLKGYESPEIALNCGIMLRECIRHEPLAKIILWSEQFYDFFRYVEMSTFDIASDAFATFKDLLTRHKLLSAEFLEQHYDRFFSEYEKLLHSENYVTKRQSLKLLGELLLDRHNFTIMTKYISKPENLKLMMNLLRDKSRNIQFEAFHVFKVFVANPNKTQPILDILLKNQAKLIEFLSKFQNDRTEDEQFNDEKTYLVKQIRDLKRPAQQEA

[8] = target: T3, STK17A (Homo sapiens, UniProt Q9UEE5); test: Kinase selectivity screen STK17A; settings: read-out: % inhibition of STK17A
T3 sequence (Q9UEE5 1-414): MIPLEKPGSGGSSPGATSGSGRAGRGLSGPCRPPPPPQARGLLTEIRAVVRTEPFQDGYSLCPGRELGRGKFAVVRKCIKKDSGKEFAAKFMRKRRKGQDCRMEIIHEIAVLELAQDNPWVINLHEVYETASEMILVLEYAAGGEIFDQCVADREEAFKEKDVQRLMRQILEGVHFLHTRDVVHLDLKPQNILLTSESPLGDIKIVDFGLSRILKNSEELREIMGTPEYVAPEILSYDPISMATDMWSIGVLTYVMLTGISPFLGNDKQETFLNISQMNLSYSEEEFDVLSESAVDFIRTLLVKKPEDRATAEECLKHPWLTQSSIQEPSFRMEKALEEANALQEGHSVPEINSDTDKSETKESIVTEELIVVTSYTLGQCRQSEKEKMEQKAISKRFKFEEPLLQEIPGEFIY

[9] = target: MAP3K9 (Homo sapiens, UniProt P80192); test: Kinase selectivity screen MAP3K9; settings: read-out: % inhibition of MAP3K9
MAP3K9, sequence (P80192 whole entry, species assumed): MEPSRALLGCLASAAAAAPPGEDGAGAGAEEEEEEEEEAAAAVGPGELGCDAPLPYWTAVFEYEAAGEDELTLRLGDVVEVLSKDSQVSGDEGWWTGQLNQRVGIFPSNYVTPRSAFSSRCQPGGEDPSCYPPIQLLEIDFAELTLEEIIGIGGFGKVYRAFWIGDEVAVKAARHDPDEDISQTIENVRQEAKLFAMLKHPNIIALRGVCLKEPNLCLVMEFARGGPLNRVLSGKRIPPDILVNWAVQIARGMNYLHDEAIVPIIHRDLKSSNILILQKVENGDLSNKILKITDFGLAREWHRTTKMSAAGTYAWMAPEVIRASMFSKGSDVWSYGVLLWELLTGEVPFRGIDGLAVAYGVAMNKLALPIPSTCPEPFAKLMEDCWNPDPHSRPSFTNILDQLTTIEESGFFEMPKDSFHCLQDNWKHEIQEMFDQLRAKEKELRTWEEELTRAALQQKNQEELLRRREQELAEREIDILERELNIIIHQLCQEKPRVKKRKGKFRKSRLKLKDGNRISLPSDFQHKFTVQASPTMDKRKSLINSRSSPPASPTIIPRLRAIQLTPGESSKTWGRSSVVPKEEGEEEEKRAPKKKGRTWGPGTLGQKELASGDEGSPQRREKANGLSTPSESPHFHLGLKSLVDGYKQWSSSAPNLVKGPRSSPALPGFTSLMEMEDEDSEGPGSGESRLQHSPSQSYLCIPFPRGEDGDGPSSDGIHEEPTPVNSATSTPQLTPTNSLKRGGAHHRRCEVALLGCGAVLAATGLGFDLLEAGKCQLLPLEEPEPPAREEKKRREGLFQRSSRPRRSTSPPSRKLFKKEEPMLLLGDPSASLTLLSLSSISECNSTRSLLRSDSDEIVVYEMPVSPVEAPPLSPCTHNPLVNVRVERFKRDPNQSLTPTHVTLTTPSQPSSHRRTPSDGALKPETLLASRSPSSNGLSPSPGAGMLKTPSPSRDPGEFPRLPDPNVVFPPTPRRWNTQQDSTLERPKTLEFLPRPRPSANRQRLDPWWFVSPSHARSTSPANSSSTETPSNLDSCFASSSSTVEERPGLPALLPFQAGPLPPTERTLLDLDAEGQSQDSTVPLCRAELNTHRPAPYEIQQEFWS

FGFR4, sequence (P22455 22-802, species assumed): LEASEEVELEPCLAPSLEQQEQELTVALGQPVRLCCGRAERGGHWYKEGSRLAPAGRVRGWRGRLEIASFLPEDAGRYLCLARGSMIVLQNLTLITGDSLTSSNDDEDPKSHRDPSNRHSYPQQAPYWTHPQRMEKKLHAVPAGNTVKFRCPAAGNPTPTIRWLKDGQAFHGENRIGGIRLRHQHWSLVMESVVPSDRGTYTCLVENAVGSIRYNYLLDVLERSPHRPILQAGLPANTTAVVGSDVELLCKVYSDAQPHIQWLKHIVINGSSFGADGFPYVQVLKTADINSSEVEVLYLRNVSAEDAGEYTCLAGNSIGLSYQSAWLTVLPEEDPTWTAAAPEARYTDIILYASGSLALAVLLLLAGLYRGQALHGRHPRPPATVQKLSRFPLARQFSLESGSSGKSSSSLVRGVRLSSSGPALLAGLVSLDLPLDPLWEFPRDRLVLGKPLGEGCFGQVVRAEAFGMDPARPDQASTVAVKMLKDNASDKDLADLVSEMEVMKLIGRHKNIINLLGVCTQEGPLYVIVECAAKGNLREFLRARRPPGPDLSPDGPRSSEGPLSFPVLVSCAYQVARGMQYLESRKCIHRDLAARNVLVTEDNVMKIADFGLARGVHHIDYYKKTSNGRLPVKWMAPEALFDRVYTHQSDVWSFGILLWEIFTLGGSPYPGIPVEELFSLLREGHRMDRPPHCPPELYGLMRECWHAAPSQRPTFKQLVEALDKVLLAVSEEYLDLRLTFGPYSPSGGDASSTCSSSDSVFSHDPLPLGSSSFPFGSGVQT
PIM2, sequence (Q9P1W9 whole entry, species assumed): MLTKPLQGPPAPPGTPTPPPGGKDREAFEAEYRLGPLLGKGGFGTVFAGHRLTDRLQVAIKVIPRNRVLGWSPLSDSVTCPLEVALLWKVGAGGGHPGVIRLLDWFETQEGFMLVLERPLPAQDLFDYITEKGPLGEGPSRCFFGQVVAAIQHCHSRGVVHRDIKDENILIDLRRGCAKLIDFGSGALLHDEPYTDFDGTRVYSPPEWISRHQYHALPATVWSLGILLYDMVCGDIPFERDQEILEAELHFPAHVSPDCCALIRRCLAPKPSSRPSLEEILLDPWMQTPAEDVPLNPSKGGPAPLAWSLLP
CaMK1, sequence (Q14012 whole entry): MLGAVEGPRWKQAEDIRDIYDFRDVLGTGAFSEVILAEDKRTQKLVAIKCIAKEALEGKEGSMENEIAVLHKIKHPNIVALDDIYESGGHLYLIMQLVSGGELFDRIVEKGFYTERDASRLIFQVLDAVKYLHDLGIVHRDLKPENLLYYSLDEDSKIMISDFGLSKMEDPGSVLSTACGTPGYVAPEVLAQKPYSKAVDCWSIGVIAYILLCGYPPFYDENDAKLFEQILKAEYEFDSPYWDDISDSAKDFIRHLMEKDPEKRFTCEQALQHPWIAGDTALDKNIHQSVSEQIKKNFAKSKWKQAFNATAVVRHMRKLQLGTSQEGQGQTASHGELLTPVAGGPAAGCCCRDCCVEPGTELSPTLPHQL
INSR, sequence (P06213 28-1382, species assumed): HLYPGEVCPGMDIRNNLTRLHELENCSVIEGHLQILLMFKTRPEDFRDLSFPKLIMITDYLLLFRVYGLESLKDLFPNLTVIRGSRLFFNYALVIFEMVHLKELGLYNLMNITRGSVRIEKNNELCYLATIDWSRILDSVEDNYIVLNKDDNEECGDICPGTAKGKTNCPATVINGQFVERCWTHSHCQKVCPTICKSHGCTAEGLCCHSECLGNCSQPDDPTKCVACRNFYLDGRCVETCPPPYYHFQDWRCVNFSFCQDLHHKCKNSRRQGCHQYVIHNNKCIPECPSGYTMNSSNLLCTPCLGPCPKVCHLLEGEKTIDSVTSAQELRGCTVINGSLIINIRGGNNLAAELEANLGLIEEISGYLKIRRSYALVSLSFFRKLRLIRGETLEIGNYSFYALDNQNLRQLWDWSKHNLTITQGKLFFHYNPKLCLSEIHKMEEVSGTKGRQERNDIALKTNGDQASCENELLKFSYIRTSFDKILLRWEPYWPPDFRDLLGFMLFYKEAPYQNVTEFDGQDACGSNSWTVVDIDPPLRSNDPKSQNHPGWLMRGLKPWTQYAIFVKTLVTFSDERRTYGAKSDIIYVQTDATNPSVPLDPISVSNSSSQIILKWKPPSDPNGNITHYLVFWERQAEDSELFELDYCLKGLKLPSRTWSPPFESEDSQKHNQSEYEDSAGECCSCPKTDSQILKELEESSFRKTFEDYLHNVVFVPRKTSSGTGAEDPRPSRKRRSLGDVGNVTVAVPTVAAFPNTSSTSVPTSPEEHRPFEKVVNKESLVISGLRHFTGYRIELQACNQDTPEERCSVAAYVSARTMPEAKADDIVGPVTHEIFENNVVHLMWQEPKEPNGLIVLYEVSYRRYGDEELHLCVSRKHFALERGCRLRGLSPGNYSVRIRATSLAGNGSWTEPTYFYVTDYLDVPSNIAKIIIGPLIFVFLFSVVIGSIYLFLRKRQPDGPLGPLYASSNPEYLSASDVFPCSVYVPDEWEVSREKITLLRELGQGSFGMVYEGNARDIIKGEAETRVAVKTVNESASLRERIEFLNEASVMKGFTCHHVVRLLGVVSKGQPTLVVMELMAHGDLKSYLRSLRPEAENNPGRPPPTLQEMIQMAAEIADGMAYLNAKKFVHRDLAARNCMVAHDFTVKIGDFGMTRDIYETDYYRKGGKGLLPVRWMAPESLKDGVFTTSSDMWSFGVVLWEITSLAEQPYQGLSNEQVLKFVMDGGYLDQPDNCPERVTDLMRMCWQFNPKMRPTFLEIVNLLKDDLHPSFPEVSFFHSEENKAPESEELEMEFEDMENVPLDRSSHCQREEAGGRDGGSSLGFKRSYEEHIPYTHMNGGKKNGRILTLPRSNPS

Row | Structure (SMILES) | inhibition at 1 µM [1] [%] | inhibition at 1 µM [2] [%] | inhibition at 1 µM [3] [%] | inhibition at 1 µM [4] [%] | inhibition at 1 µM [5] [%] | inhibition at 1 µM [6] [%] | inhibition at 1 µM [7] [%] | inhibition at 1 µM [8] [%] | inhibition at 1 µM [9] [%]
1 | CC(C)Oc1cc(F)ccc1Nc1ncnc2sc(C(=O)NCC3CCNCC3)nc12 [Example 10, 7-(4-fluoro-2-isopropoxy-anilino)-N-(4-piperidylmethyl)thiazolo[5,4-d]pyrimidine-2-carboxamide] | 10 | 8 | 7 | 7 | 11 | 0 | 21 | 2 | 11
2 | O=C(NCC1CCNCC1)c1nc2c(N3CCc4cc(F)ccc43)ncnc2s1 [Example 58, 7-(5-fluoroindolin-1-yl)-N-(4-piperidylmethyl)thiazolo[5,4-d]pyrimidine-2-carboxamide] | 7 | 20 | 13 | 21 | 11 | 10 | 7 | 41 | 24
3 | CN(C)CCCNC(=O)c1nc2c(N3CCc4cc(F)ccc43)ncnc2s1 [Example 64, N-[3-(dimethylamino)propyl]-7-(5-fluoroindolin-1-yl)thiazolo[5,4-d]pyrimidine-2-carboxamide] | 3 | 0 | 42 | 44 | 18 | 0 | 10 | 70 | 1
